In patent US12059422B2 (MEI Pharma, Inc., priority 2011, dated 2024):
pIC50: −log10 of the molar value.

Target: T1, PI3Kδ (Homo sapiens, UniProt O00329)
T1 construct: endogenous in cells; host or cells: Raji (ATCC #CCL-86)
Assay: ELISA assay for PI3Kδ: sandwich ELISA, phosphorylation of AKT (Thr308) in Raji cells
Assay type: cell-based
Settings: for pIC50: cellular, pAKT (Thr308), Raji cells, anti-Human IgM stimulation, read-out: IC50 p110δ; for α/δ ratio / β/δ ratio / γ/δ ratio: ratio of cellular IC50 values, Table 2
Procedure: Cellular PI3Kδ activity was determined by measuring the phosphorylation of AKT (Thr308) using a sandwich enzyme-linked immunosorbant assay (ELISA). Raji (Burkitt's Lymphoma) cells were obtained from ATCC (ATCC #CCL-86). Phosphate buffer saline (PBS) contained 2.7 M NaCl, 54 mM KCl, 86 mM […] (dibasic, anhydrous), and 28 mM […] (monobasic, anhydrous) at pH 7.2. Wash buffer contained PBS supplemented with 0.05% Tween-20. Blocking buffer contained wash buffer supplemented with 1% BSA. A 10× stimulation mixture contained 5 μg/mL anti-Human IgM antibody (Sigma #12386) diluted in serum-free RPMI medium (CellGro #CV-10-040-CV). Compounds for testing were dissolved and serially diluted in 100% DMSO (total of 10 concentrations), and then diluted in serum-free RPMI to 5×final assay concentration.
Raji cells were subcultured in RPMI medium supplemented with 10% fetal bovine serum, 100 IU/mL penicillin, 100 μg/mL streptomycin, and 1×MEM non-essential amino acids. Sandwich ELISA plates were prepared by coating 96-well assay plates (Pierce #15042) with 100 μL/well capture antibody (Cell Signaling Technology #7142 or 7144) diluted in PBS. Plates were incubated overnight at 4° C., then washed with wash buffer, after which 200 μL/well blocking buffer was added to the plates and incubated at room temperature for at least 2 hrs. Raji cells were resuspended in serum-free RPMI medium and seeded into V-bottom, 2-mL 96-well blocks (Corning #3961) at 10^6 cells/well, then incubated for 2 hrs in a 37° C., 5% CO2 incubator. Compound treatment was performed by adding the 5× compound mixture to the cells and incubating for 2 hrs at 37° C., 5% CO2, after which the 10× stimulation mixture was added to the plates and incubated for 30 min at 37° C., 5% CO2. Cells were pelleted by centrifuging plates at 1500 RPM for 5 min at room temperature. Media was carefully removed and cells were lysed by adding 100 μL/well cell lysis buffer (Cell Signaling Technology #9803) supplemented with protease and phosphatase inhibitors (Thermo Fisher #78443). Plates were incubated on ice for 30 min, then the lysates (80 μL for pAKT^T308, 10 μL for total AKT) were transferred to prepared assay plates and incubated at 4° C. overnight. After washing plates with wash buffer, 100 μL/well detection antibody (Cell Signaling Technology #7142 or 7144) diluted in blocking buffer was added to the plates and incubated for 1 hr at 37° C. Plates were washed and 100 μL/well of HRP-conjugated secondary antibody (Cell Signaling Technology #7142 or 7144) diluted in blocking buffer was added to plates and incubated for 1 hr at room temperature. Plates were washed with wash buffer and 100 μL/well of luminescent substrate was added to plates. After 1 min on a plate shaker at medium speed, luminescence was read on a Wallac Victor2 plate reader. IC50 values were determined by curve fitting using a Collaborative Drug Discovery database (www.collaborativedrug.com).

T1 sequence (O00329 whole entry): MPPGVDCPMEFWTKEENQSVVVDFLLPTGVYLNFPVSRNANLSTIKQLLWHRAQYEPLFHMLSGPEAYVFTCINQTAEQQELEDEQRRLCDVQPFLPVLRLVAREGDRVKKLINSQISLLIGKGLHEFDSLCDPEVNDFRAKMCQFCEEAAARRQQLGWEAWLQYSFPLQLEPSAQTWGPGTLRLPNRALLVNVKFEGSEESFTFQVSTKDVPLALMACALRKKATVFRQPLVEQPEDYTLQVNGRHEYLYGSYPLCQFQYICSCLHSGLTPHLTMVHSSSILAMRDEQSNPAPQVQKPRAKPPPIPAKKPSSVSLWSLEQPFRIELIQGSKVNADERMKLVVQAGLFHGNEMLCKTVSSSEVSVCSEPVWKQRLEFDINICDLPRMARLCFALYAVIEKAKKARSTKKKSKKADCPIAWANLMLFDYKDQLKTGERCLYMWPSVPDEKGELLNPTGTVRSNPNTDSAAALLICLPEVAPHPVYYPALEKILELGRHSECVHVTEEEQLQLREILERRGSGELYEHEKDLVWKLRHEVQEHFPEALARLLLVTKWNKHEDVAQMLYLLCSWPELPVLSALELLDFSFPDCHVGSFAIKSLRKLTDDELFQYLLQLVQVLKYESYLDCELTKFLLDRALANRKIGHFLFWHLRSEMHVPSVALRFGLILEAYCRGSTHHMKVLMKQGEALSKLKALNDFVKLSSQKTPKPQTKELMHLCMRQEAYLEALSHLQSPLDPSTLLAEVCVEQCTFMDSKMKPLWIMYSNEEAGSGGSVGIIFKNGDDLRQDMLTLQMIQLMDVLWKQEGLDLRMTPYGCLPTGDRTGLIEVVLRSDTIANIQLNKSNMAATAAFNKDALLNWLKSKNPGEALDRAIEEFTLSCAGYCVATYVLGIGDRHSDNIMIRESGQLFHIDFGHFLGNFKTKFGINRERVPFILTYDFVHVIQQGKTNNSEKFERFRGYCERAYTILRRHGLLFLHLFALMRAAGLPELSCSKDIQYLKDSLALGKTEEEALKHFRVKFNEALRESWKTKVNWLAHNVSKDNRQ
T1 sequence (P27986 whole entry partner): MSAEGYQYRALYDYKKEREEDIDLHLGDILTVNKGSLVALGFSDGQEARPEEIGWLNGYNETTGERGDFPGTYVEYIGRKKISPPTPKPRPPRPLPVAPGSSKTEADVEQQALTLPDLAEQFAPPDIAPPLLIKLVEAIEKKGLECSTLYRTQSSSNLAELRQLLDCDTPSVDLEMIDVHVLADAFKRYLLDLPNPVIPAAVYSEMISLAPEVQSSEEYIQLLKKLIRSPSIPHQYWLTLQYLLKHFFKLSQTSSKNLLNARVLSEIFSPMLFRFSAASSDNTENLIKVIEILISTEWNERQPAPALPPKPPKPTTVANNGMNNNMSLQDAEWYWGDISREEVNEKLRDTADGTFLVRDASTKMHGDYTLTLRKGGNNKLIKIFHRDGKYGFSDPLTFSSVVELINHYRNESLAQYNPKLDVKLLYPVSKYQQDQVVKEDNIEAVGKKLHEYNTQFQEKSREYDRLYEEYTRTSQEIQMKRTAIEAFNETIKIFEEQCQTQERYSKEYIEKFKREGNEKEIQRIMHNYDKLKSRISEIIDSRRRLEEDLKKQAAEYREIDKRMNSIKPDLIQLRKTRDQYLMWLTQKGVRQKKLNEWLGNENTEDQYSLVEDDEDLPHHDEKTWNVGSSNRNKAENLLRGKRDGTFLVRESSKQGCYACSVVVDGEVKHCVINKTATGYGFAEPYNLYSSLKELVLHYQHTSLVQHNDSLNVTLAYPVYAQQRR

pIC50 | α/δ ratio | β/δ ratio | γ/δ ratio | SMILES
≥ 7.00 | A’ | B’ | A’ | Cc1cccc(CC(C)(C)Nc2nc(N3CCOCC3)nc(-n3c(C(F)F)nc4ccccc43)n2)c1 [Compound A49, 4-(2-(difluoromethyl)-1H-benzo[d]imidazol-1-yl)-N-(2-methyl-1-m-tolylpropan-2-yl)-6-morpholino-1,3,5-triazin-2-amine]
≥ 7.00 | A’ | D’ | A’ | CC(C)(Cc1ccc(F)cc1F)Nc1nc(N2CCOCC2)nc(-n2c(C(F)F)nc3ccccc32)n1 [Compound A51, 4-(2-(difluoromethyl)-1H-benzo[d]imidazol-1-yl)-N-(1-(2,4-difluorophenyl)-2-methylpropan-2-yl)-6-morpholino-1,3,5-triazin-2-amine]
≥ 7.00 | A’ | A’ | A’ | CC(C)(Cc1ccccc1-c1ccccc1F)Nc1nc(N2CCOCC2)nc(-n2c(C(F)F)nc3ccccc32)n1 [Compound A59, 4-(2-(difluoromethyl)-1H-benzo[d]imidazol-1-yl)-N-(1-(2′-fluorobiphenyl-2-yl)-2-methylpropan-2-yl)-6-morpholino-1,3,5-triazin-2-amine]
≥ 7.00 | A’ | A’ | A’ | Cc1ccccc1-c1ccccc1CC(C)(C)Nc1nc(N2CCOCC2)nc(-n2c(C(F)F)nc3ccccc32)n1 [Compound A60, 4-(2-(difluoromethyl)-1H-benzo[d]imidazol-1-yl)-N-(2-methyl-1-(2′-methylbiphenyl-2-yl)propan-2-yl)-6-morpholino-1,3,5-triazin-2-amine]
≥ 7.00 | A’ | A’ | A’ | CC(C)(Cc1ccccc1-c1ccccc1Cl)Nc1nc(N2CCOCC2)nc(-n2c(C(F)F)nc3ccccc32)n1 [Compound A61, 4-(2-(difluoromethyl)-1H-benzo[d]imidazol-1-yl)-N-(1-(6′-chlorobiphenyl-2-yl)-2-methylpropan-2-yl)-6-morpholino-1,3,5-triazin-2-amine]
≥ 7.00 | A’ | A’ | A’ | CC(C)(Cc1ccccc1-c1cccnc1F)Nc1nc(N2CCOCC2)nc(-n2c(C(F)F)nc3ccccc32)n1 [Compound A62]
≥ 7.00 | A’ | A’ | A’ | CC(C)(Cc1ccccc1-c1cncnc1)Nc1nc(N2CCOCC2)nc(-n2c(C(F)F)nc3ccccc32)n1 [Compound A63, 4-(2-(difluoromethyl)-1H-benzo[d]imidazol-1-yl)-N-(2-methyl-1-(2-(pyrimidin-5-yl)phenyl)propan-2-yl)-6-morpholino-1,3,5-triazin-2-amine]
≥ 7.00 | A’ | A’ | A’ | CN1CCN(c2cc(-c3ccccc3CC(C)(C)Nc3nc(N4CCOCC4)nc(-n4c(C(F)F)nc5ccccc54)n3)ccn2)CC1 [Compound A64, 4-(2-(difluoromethyl)-1H-benzo[d]imidazol-1-yl)-N-(2-methyl-1-(2-(2-(4-methylpiperazin-1-yl)pyridin-4-yl)phenyl)propan-2-yl)-6-morpholino-1,3,5-triazin-2-amine]
≥ 7.00 | A’ | A’ | A’ | COc1cccc(-c2ccccc2CC(C)(C)Nc2nc(N3CCOCC3)nc(-n3c(C(F)F)nc4ccccc43)n2)c1 [Compound A66, 4-(2-(difluoromethyl)-1H-benzo[d]imidazol-1-yl)-N-(1-(3′-methoxybiphenyl-2-yl)-2-methylpropan-2-yl)-6-morpholino-1,3,5-triazin-2-amine]
≥ 7.00 | A’ | A’ | A’ | COc1ccc(-c2ccccc2CC(C)(C)Nc2nc(N3CCOCC3)nc(-n3c(C(F)F)nc4ccccc43)n2)cc1 [Compound A67, 4-(2-(difluoromethyl)-1H-benzo[d]imidazol-1-yl)-N-(1-(4′-methoxybiphenyl-2-yl)-2-methylpropan-2-yl)-6-morpholino-1,3,5-triazin-2-amine]

The next lines start with the molecule.

SMILES | pIC50 | α/δ ratio | β/δ ratio | γ/δ ratio
COc1cc(CC(C)(C)Nc2nc(N3CCOCC3)nc(-n3c(C(F)F)nc4ccccc43)n2)ccc1F [Compound A50, 4-(2-(difluoromethyl)-1H-benzo[d]imidazol-1-yl)-N-(1-(4-fluoro-3-methoxyphenyl)-2-methylpropan-2-yl)-6-morpholino-1,3,5-triazin-2-amine] | ≥ 7.00 | A’ | A’ | A’
CC(C)(Cc1c(F)cccc1F)Nc1nc(N2CCOCC2)nc(-n2c(C(F)F)nc3ccccc32)n1 [Compound A52, 4-(2-(difluoromethyl)-1H-benzo[d]imidazol-1-yl)-N-(1-(2,6-difluorophenyl)-2-methylpropan-2-yl)-6-morpholino-1,3,5-triazin-2-amine] | ≥ 7.00 | A’ | D’ | A’
CC(C)(Cc1ccccc1-c1cccc(CN2CCOCC2)c1)Nc1nc(N2CCOCC2)nc(-n2c(C(F)F)nc3ccccc32)n1 [Compound A65, 4-(2-(difluoromethyl)-1H-benzo[d]imidazol-1-yl)-N-(2-methyl-1-(3′-(morpholinomethyl)biphenyl-2-yl)propan-2-yl)-6-morpholino-1,3,5-triazin-2-amine] | ≥ 7.00 | A’ | B’ | A’
CC(C)(Cc1ccccc1C1CCNCC1)Nc1nc(N2CCOCC2)nc(-n2c(C(F)F)nc3ccccc32)n1 [Compound A68, 4-(2-(difluoromethyl)-1H-benzo[d]imidazol-1-yl)-N-(2-methyl-1-(2-(piperidin-4-yl)phenyl)propan-2-yl)-6-morpholino-1,3,5-triazin-2-amine] | ≥ 7.00 | A’ | A’ | A’
CCN1CCC(c2ccccc2CC(C)(C)Nc2nc(N3CCOCC3)nc(-n3c(C(F)F)nc4ccccc43)n2)CC1 [Compound A70, 4-(2-(difluoromethyl)-1H-benzo[d]imidazol-1-yl)-N-(1-(2-(1-ethylpiperidin-4-yl)phenyl)-2-methylpropan-2-yl)-6-morpholino-1,3,5-triazin-2-amine] | ≥ 7.00 | A’ | A’ | A’
CC(C)N1CCC(c2ccccc2CC(C)(C)Nc2nc(N3CCOCC3)nc(-n3c(C(F)F)nc4ccccc43)n2)CC1 [Compound A71, 4-(2-(difluoromethyl)-1H-benzo[d]imidazol-1-yl)-N-(1-(2-(1-isopropylpiperidin-4-yl)phenyl)-2-methylpropan-2-yl)-6-morpholino-1,3,5-triazin-2-amine] | ≥ 7.00 | A’ | A’ | A’
CC(=O)N1CCC(c2ccccc2CC(C)(C)Nc2nc(N3CCOCC3)nc(-n3c(C(F)F)nc4ccccc43)n2)CC1 [Compound A72, 4-(2-(difluoromethyl)-1H-benzo[d]imidazol-1-yl)-N-(2-methyl-1-(2-(1-acetylpiperidin-4-yl)phenyl)propan-2-yl)-6-morpholino-1,3,5-triazin-2-amine] | ≥ 7.00 | A’ | A’ | A’
